Source: publication PMC6027146, “Synthesis and Structure-Activity Relationships of (−)-cis-N-Normetazocine-Based LP1 Derivatives” (Pharmaceuticals, 2018)
Where two headings read alike, the source gives them in different places.

Assays:
recombinant human MOR = target: T1, recombinant human MOR (Homo sapiens, UniProt P35372); assay: Calcium mobilization assay, CHO-MOR cells expressing Gαqi5; type: cell-based; conditions: for MOR pEC50 (CL95%): agonist mode, crc incomplete = incomplete concentration response curve at 10 μM
T1 construct: expressed in transfected cells; gift of Dr. Larry Toll (SRI International); infected with a retrovirus for Gαqi5

recombinant human DOR = target: T2, recombinant human DOR (Homo sapiens, UniProt P41143); assay: Calcium mobilization assay, CHO-DOR cells expressing GαqG66Di5; type: cell-based; conditions: for DOR pEC50 (CL95%): agonist mode, crc incomplete = incomplete concentration response curve at 10 μM
T2 construct: expressed in transfected cells; supplied by Dr. Eva Varga (University of Arizona); infected with a retrovirus for GαqG66Di5
Protocol: (§1) The pharmacological characterization of LP1 derivatives 2 and 10–16 was performed by calcium mobilization assay (Table 2). This procedure was preliminarily validated through a series of experiments where the effects of DPDPE, dermorphin, and dynorphin A were assessed in CHO cells expressing the human recombinant opioid receptors and Gαqi5 or GαqG66Di5 chimeric proteins.
(§2) Chinese hamster ovary (CHO) cells expressing the recombinant human MOR and KOR (CHO^MOR and CHO^KOR) were kindly provided by Dr. Larry Toll (SRI International, Menlo Park, CA, USA), and CHO cells expressing the recombinant human DOR (CHO^DOR) were supplied by Dr. Eva Varga (Department of Medical Pharmacology, The University of Arizona, Tucson, AZ, USA). CHO cells lines permanently coexpressing the opioid receptors and the C-terminally modified Gαqi5 were prepared by infecting the CHO lines described above with a recombinant retrovirus expressing the chimeric α subunit and the hygromycin resistance gene. Similarly, CHO cells lines permanently coexpressing DOR and the C-terminally modified GαqG66Di5 were prepared by infecting the CHO lines described above with a recombinant retrovirus expressing the chimeric α subunit and the hygromycin resistance gene. Polyclonal cell lines were generated using the pantropic retroviral expression system form BD-Clontech, as described previously. Stable lines were selected under hygromycin B (100 μg/mL) and geneticin (600 μg/mL) for 2–3 weeks after the infection.
(§3) CHO cells, expressing human opioid receptors and the Gαqi5 protein, and CHODOR, expressing the GαqG66Di5 protein, were maintained in culture medium consisting of Dulbecco minimum essential medium (DMEM) and Ham F-12 (1:1) (50/50) supplemented with 10% fetal calf serum (FCS), L-glutamine (2 mM), geneticin (200 μg/mL; G418), hygromycin B (100 μg/mL) at 37 °C in 5% CO2 humidified air. When confluence was reached (3–4 days), cells were subcultured as required using trypsin/EDTA, and used for experimentation. The different cell lines were seeded at a density of […] into black 96-well, clear-bottomed plates. After 24 h incubation, the cells were loaded with medium supplemented with 2.5 mM probenecid, 3 μM of the calcium sensitive fluorescent dye Fluo-4 AM, and 0.01% pluronic acid, for 30 min at 37 °C. Afterwards, the loading solution was aspirated and 100 μL/well of assay buffer—HBSS supplemented with 20 mM HEPES, 2.5 mM probenecid and 500 μM Brilliant Black (Aldrich, St. Louis, MO, USA)—was added. Serial dilutions of ligands for experimental use were made in HBSS/HEPES (20 mM) buffer (containing 0.005% BSA fraction V). After placing both plates (cell culture and compound plate) into the FlexStation II (Molecular Device, Union City, San Jose, CA 94587, USA), fluorescence changes were measured at room temperature. Online additions were carried out in a volume of 50 μL/well. Antagonists were incubated 15 min before the addition of the agonist. Maximum change in fluorescence, expressed in percent of baseline fluorescence, was used to determine agonist response.
(§4) Analysis of the binding data was performed using the Origin 7.5 software (OriginLab Corporation, Northampton, MA, USA). In calcium mobilization experiments, data were analyzed by non-linear curve fitting equation, using GraphPad 5.0 software. […] Ligand efficacy was expressed as intrinsic activity (α), calculated as the ratio between the Emax of the ligand and that of the respective standards. Calcium mobilization data were expressed as FIU (fluorescence intensity units) in percent, over the baseline. Agonist potencies are given as pEC50 (the negative logarithm to base 10 of the molar concentration of an agonist that produces 50% of the maximal possible effect, Emax). Concentration response curves to agonists were fitted with the following equation: Effect = baseline + (Emax − baseline)/(1+10^(LogEC50 − X) ∗ HillSlope) where X is the agonist concentration. […]

rat-MOR [1] = target: T3, rat-MOR (Rattus norvegicus, UniProt P33535); parameters: method as in PMID 27234885; conditions: read-out: Ki (μM) ± SEM MOR; [3H]-DPN displacement; cited from earlier work
T3 construct: expressed in transfected cells

rat-DOR [2] = target: T4, rat-DOR (Rattus norvegicus, UniProt P33533); parameters: method as in PMID 27234885; conditions: read-out: Ki (μM) ± SEM DOR; [3H]-DPN displacement; cited from earlier work
T4 construct: expressed in transfected cells

human-KOR [3] = target: T5, human-KOR (Homo sapiens, UniProt P41145); parameters: expressed in transfected cells; method as in PMID 27234885; conditions: read-out: Ki (μM) ± SEM KOR; [3H]-DPN displacement; cited from earlier work
human-KOR [4] = target: T5, human-KOR; assay: Calcium mobilization assay, CHO-KOR cells expressing Gαqi5; type: cell-based; parameters: expressed in transfected cells; gift of Dr. Larry Toll (SRI International); infected with a retrovirus for Gαqi5; conditions: for KOR pEC50 (CL95%): agonist mode, crc incomplete = incomplete concentration response curve at 10 μM
Protocol: as §1, §2, §3, §4

rat-MOR [5] = target: T3, rat-MOR; assay: Radioligand competition binding, [3H]-DPN, HEK293 membranes, MOR; conditions: [3H]-DPN displacement; means ± SEM of three experiments in duplicate; read-out: Ki (μM) ± SEM MOR
Protocol: (§5) All synthesized compounds were tested in vitro by radioligand competition binding using [^3H]-diprenorphine ([^3H]-DPN) to measure the affinity for opioid receptor subtypes in membranes from HEK293 cells stably expressing either MOR, DOR, or KOR, as previously described.
(§6) Confluent monolayers of HEK293 (human embryonic kidney 293) cells stably expressing rat-MOR, rat-DOR, or human-KOR were harvested, collected by centrifugation at 1500 rpm for 5 min, and washed once with phosphate-buffered saline (PBS) at pH 7.5. Membranes from cell pellets were carried out as described by Georgoussi and Zioudrou (1993) and Papakonstantinou et al. (2015). Briefly, cell pellets were resuspended in ice-cold membrane buffer (10 mM Tris-HCl, pH 7.5 and 0.1 mM EDTA), homogenized, and centrifuged at 2,000 g for 3 min at 4 °C. Supernatants were further centrifuged at 45,000 rpm for 30 min at 4 °C. The membrane pellet was resuspended in ice-cold membrane buffer at a protein concentration of approximately 1 mg/mL and stored in aliquots at −70 °C. Protein concentration was determined according to Bradford assay.
(§7) In the experiments designed to define compound affinity and selectivity for MOR, DOR, and KOR, membranes expressing each of these opioid receptors ([…]) were incubated at 30 °C for 45 min in buffer containing 50 mM Tris-HCl, pH 7.5, 100 mM NaCl, and 10 mM MgCl2 as described by Georgoussi et al. […] The ability of compounds 10–16 to displace [^3H]-DPN (3.75 nM) binding to the opioid receptors was assessed as described by Morou And Georgoussi (2005). Non-specific binding was measured in the presence of […] Naloxone. The reaction was stopped by rapid filtration and three washes in ice-cold 50 mM Tris-HCl, pH 7.4, through GF/C filters (Whatman, Maidstone, UK) using an automated cell harvester (Brandel Inc., Gaithersburg, MD, USA). The radioactivity was measured by liquid scintillation counting (Liquid Scintillation Analyzer, Packard).
(§8) Analysis of the binding data was performed using the Origin 7.5 software (OriginLab Corporation, Northampton, MA, USA). In calcium mobilization experiments, data were analyzed by non-linear curve fitting equation, using GraphPad 5.0 software. […] Ligand efficacy was expressed as intrinsic activity (α), calculated as the ratio between the Emax of the ligand and that of the respective standards. Calcium mobilization data were expressed as FIU (fluorescence intensity units) in percent, over the baseline. Agonist potencies are given as pEC50 (the negative logarithm to base 10 of the molar concentration of an agonist that produces 50% of the maximal possible effect, Emax). Concentration response curves to agonists were fitted with the following equation: Effect = baseline + (Emax − baseline)/(1+10^(LogEC50 − X) ∗ HillSlope) where X is the agonist concentration.

rat-DOR [6] = target: T4, rat-DOR; assay: Radioligand competition binding, [3H]-DPN, HEK293 membranes, DOR; conditions: [3H]-DPN displacement; means ± SEM of three experiments in duplicate; read-out: Ki (μM) ± SEM DOR
Protocol: as §5, §6, §7, §8

human-KOR [7] = target: T5, human-KOR; assay: Radioligand competition binding, [3H]-DPN, HEK293 membranes, KOR; parameters: expressed in transfected cells; conditions: [3H]-DPN displacement; means ± SEM of three experiments in duplicate; read-out: Ki (μM) ± SEM KOR
Protocol: as §5, §6, §7, §8

| Compound | Kb (recombinant human MOR) [nM] | MOR pEC50 (CL95%) (recombinant human MOR; Inactive = inactive at 10 μM) | Kb (recombinant human DOR) [nM] | DOR pEC50 (CL95%) (recombinant human DOR; Inactive = inactive at 10 μM) | Ki (rat-MOR [1]) [µM] | Ki (rat-DOR [2]) [µM] | Ki (human-KOR [3]) [µM] | Kb (human-KOR [4]) [nM] | KOR pEC50 (CL95%) (human-KOR [4]; Inactive = inactive at 10 μM) | Ki (rat-MOR [5]) [µM] | Ki (rat-DOR [6]) [µM] | Kb (recombinant human MOR; antagonist mode, dermorphin as agonist, Inactive = inactive at 10 μM, read-out: MOR pKB (CL95%) (converted)) [nM] | DOR pKB (CL95%) (recombinant human DOR; antagonist mode, DPDPE as agonist, Inactive = inactive at 10 μM) | melting point | Ki (human-KOR [7]) [µM] | KOR pKB (CL95%) (human-KOR [4]; antagonist mode, dynorphin A as agonist, Inactive = inactive at 10 μM) |
| --- | --- | --- | --- | --- | --- | --- | --- | --- | --- | --- | --- | --- | --- | --- | --- | --- |
| CC1C2Cc3ccc(O)cc3C1(C)CCN2CCC(=O)Nc1cccc2ccccc12 (stereo not shown) [Compound 2] | 12.6 | Inactive ^e | 166 | Inactive | 0.038 ± 0.004 | 0.21 ± 0.03 | 0.8 ± 0.016 | 1380 | Inactive | – | – | – | – | – | – | – |
| C[C@H]1[C@H]2Cc3ccc(O)cc3[C@]1(C)CCN2CCC(=O)N1CCc2ccccc21 [Compound 14, 1-(2,3-Dihydro-1H-indol-1-yl)-3-[(2R,6R,11R)-8-hydroxy-6,11-dimethyl-1,4,5,6-tetrahydro-2,6-methano-3-benzazocin-3(2H)-yl]propan-1-one] | – | Inactive | – | Inactive | – | – | – | – | Inactive | 0.4 ± 0.03 | 1.4 ± 0.12 | 1150 | Inactive | 169 °C (dec.) | 1.6 ± 0.12 | Inactive |
